In patent publication US9029383B2, “Methods of treatment of skin ulcers” (The Trustees Of The University of Pennsylvania, priority 2007, dated 2015):
“Also recorded” adds a separate entry of the source.

Columns and labels:
[1] = Body weight and behaviour of DM/HC pigs during the study period; type: in vivo, pig
Method: (§1) At one month after stabilization of cholersterol at 250-800 mg/dl, the animals were randomized into two experimental groups, DM/HC (hyperglycemia and hypercholesterolemia) group with no treatment and treatment group (10 mg/kg/day of SB-480848, also referred to as 1-(N-(2-(diethylamino)ethyl)-N-(4-(4-trifluoromethylphenyl)benzyl)-aminocarbonylmethyl)-2-(4-fluorobenzyl)thio-5,6-trimethylenepyrimidin-4-one). The animals were then placed into two separate rooms with control animals in one room and treated animals in the other room in order to ensure that no drug would be found in the control animals. The animals were visually inspected twice daily, the visual inspections being between 8-10 hours apart, for skin abscess, especially in the leg and foot. To be considered an abscess, the minimal abscess size was 1 mm with redness in the surrounding area. When abscesses were detected, treatment was applied. Treatment comprise assessing the size and depth of abscess, draining and cleaning the abscess of dead tissue and cells, washing with Betadine, drying and bandaging with sterile dressing, and oral regime of antibiotics. Treatment was applied daily till the infection in the open sore was cleared (absence of pus) and the open sore healed by shrinkage in size and the opening was completely closed. Cultures of the abscess were carried out to determine the pathogen responsible for the infection. […]

[2] = tested on: DM/HC pigs (skin abscess); experiment: Skin abscess occurrence in diabetic/hypercholesterolemic (DM/HC) pig model; type: in vivo; details: for Development of skin abscess over the treatment period: DM/HC pigs treated for 6 months; for Further or recurring abscess after initiation of daily inhibitor treatment in pigs that already had an abscess: pigs #948 and #963, daily single dose
Method: A diabetic/diabetic hypercholestrolemic pig model (DM/HC) was developed that mimics human-like diabetes and human-like atherosclerosis. Farm pigs weighing 25-30 kg and aged ˜4 months were made diabetic with a single intravenous injection of 125 mg/kg of streptozotocin (Sicor Pharmaceuticals, Irvine, Calif.). After stabilized for 1-2 weeks, the animals with elevated levels of plasma glucose (>150 mg/dl) were fed with atherogenic (high-fat) diet as shown in Table 1 (Animal Specialties, Quakertown, Pa.) to achieve a cholesterol level of approximately 250-800 mg/dl.
For the 0.5% cholesterol diet the components are similar with the exception of 0.5% cholesterol and 20% lard. The animals were Yorkshire pigs that were castrated males at the age of […] and were obtained from Archer Farms, Darlington, Md. These feeds were prepared by Animal Specialties and Provisions, LLC, Quakertown, Pa. USA.
On days 1-2, animals were fed normal chow, followed by on days 3-14 animals were fed a diet of 0.5% cholesterol, 2% lard and on day 14, cholesterol levels were measured and the diet adjusted accordingly to increase to 2% cholesterol, 10% lard if cholesterol is <300 mg/dl. Following induction of DM/HC, cholesterol was measured until cholesterol levels are stable between 300 and 800 mg/dl, and following cholesterol stabilization, cholesterol was measured monthly. If cholesterol levels were unstable following initial stabilization phase, the diet of the animal was returned to the initial two-week measurement schedule. Monthly cholesterol levels were determined, including levels of total cholesterol, LDL, HDL, VLDL and triglycerides.
as §1
Two diabetic/hypercholesterolemic groups were evaluated: 1. […] In addition blood cholesterol levels were maintained between 300 and 800 mg/dl in experimental animals, this range having been determined to provide a better test model. Blood cholesterol levels were monitored in all animals on a bimonthly basis, as shown in Table 4 and adjustments were made to the fat content of the feed accordingly, as shown in Table 2. […]

SMILES: CCN(CC)CCN(Cc1ccc(-c2ccc(C(F)(F)F)cc2)cc1)C(=O)Cn1c(SCc2ccc(F)cc2)nc(=O)c2c1CCC2 [SB-480848, 1-(N-(2-(Diethylamino)ethyl)-N-(4-(4-trifluoromethylphenyl)benzyl)aminocarbonylmethyl)-2-(4-fluorobenzyl)thio-5,6-trimethylenepyrimidin-4-one]
- Responsiveness and activity compared to control animals ([1]; observed during the study period): more responsive to external stimuli
- Weight ([1]; treated animals at end of study, from a baseline of 26.9 kg, control 50.9 kg from 30.3 kg): 62.5 kg
- Development of skin abscess over the treatment period [2]: no pig developed any skin abscesses
- Development of skin abscess over the treatment period ([2]; listed as Lp-PLA2 inhibitor): no one developed any abscess
- Further or recurring abscess after initiation of daily inhibitor treatment in pigs that already had an abscess [2]: No further abscess developed; also recorded: remained skin abscesses-free
- Further or recurring abscess after initiation of daily inhibitor treatment in pigs that already had an abscess ([2]; listed as Lp-PLA2 inhibitor): No further abscess developed
- Average healing time of treated abscesses ([2]; pigs #948 and #963 of the treated group, abscesses developed before start of inhibitor, standard wound care): 1-2 weeks
